# Where two headings read alike, the source gives them in different places.
# Tests used:
# [1] = tested on: AsPC-1 cells; assay: AsPC-1 CTG Assay (CellTiter-Glo cell viability); format: cell-based, human; details: AsPC-1, 72 h, first value of the cell, read-out: G12D/C/V Cell Proliferation CTG (72 h) AsPC-1
# In short: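 Human pancreatic AsPC-1 or colon SW620 cells in RPMI 1640 with 10% FBS, seeded overnight, then exposed to serially diluted compound for 72 h at 37 °C. CellTiter-Glo luminescence normalized to DMSO control; IC50 from a 4-parameter logistic model.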
# [2] = molecular target: His-tagged KRAS G12D protein (Homo sapiens (Human), UniProt P01116, G12D); assay: KRAS G12D TR-FRET Assay; format: binding; details: read-out: KRAS G12D Binding IC50
# Sequence of His-tagged KRAS G12D protein (P01116 other isoform, or with tags, fused parts or gaps G12D): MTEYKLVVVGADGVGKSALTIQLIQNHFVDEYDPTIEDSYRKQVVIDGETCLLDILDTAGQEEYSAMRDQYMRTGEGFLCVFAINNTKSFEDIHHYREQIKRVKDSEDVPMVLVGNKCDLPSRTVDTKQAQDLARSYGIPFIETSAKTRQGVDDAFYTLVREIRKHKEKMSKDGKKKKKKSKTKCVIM
# In short: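 His-tagged KRAS G12D (diluted to 20 nM in pH 7.4 HEPES buffer with 10 mM MgCl2 and 10 μM GDP) was preincubated with titrated compound for 30 min at room temperature. Biotinylated KRPep-2d peptide (diluted to 20 nM) was then added for 1 h, and displacement was monitored by TR-FRET.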
# [3] = tested on: Phosphorylation of ERK1/2 in AsPC-1 cells; assay: Phospho-ERK1/2 MSD Assay; format: cell-based, human; details: read-out: 2 h p-ERK (AsPC-1 cells), IC50
# In short: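 Read-out: MSD electrochemiluminescent detection of phosphorylated ERK1/2 in whole-cell lysates, fitted to a 4-parameter logistic curve for IC50. Prior to lysis, AsPC-1 cells (25,000 per well) received a 2 h compound dose-response at 37 °C.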
# [4] = molecular target: GDP-bound KRAS protein (aa 1-169), containing both G12D and C118A amino acid substitutions (Homo sapiens (Human), UniProt P01116, C118A/G12D); assay: KRAS G12D Coupled Nucleotide Exchange Assay; format: biochemical; details: read-out: KRAS G12D Coupled Exchange IC50
# Sequence of GDP-bound KRAS protein (aa 1-169), containing both G12D and C118A amino acid substitutions (P01116 other isoform, or with tags, fused parts or gaps G12D/C118A): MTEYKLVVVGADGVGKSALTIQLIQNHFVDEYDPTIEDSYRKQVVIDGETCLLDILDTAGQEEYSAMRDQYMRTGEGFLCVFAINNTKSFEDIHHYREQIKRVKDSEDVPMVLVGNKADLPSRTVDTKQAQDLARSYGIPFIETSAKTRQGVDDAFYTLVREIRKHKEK
SMILES,"IC50 ([1]; Homo sapiens, ASPC1, 72 h) [nM]",IC50 [2] [nM],"IC50 ([3]; Homo sapiens, ASPC1, 2 h) [nM]",IC50 [4] [nM],IC50 [1] [nM],IC50 ([3]; 2 h) [nM]
"Fc1c2ncc3c(nc(OC[C@@]45CCCN4C[C@H](F)C5)nc13)N1CCOCC(C1)Cn1ncc(n1)/C=C\c1c(Cl)cc3[nH]ncc3c1-2 (stereo partly drawn) [Example 258, (20Z)-18-chloro-34-fluoro-4-(((2R,7aS)-2-fluorotetrahydro-1H-pyrrolo[1,2-a]pyrrol-7a(5H)-yl)methoxy)-29-oxa-1,3,5,9,14,15,24,25,33-nonaazaheptacyclo[25.4.1.1~6,10~.1~22,25~.0~2,7~.0~11,19~.0~12,16~]tetratriaconta-2,4,6,8,10(34),11,13,16,18,20,22(33),23-dodecaene]",996,13,82.9,6,,
"Cc1cc2[nH]ncc2c2c1CCC[C@@H](O)CC[C@@H]1CCCN(C1)c1nc(OC[C@@]34CCCN3C[C@H](F)C4)nc3c(F)c-2ncc13 [Example 237, (14R,17S)-30-Fluoro-24-(((2R,7aS)-2-fluorotetrahydro-1H-pyrrolo[1,2-a]pyrrol-7a(5H)-yl)methoxy)-9-methyl-5,6,21,23,25,29-hexaazahexacyclo[24.3.1.1˜17,21˜.0˜2,10˜.0˜3,7˜.0˜22,27˜]hentriaconta-1(30),2,4,7,9,22,24,26,28-nonaen-14-ol]",5000,19,279,10,,
"CC(=O)n1ncc2c3c(c(Cl)cc21)CCCOC(=O)O[C@@H]1COCCN(C1)c1nc(OC[C@@]24CCCN2C[C@H](F)C4)nc2c(F)c-3ncc12 [Example 213, (26S)-15-Acetyl-18-chloro-32-fluoro-4-(((2R,7aS)-2-fluorotetrahydro-1H-pyrrolo[1,2-a]pyrrol-7a(5H)-yl)methoxy)-23,25,28-trioxa-1,3,5,9,14,15-hexaazahexacyclo[24.4.1.1˜6,10˜.0˜2,7˜.0˜11,19˜.0˜12,16˜]dotriaconta-2,4,6(32),7,9,11,13,16,18-nonaen-24-one]",5,46,4.9,15,,
"O=C1N[C@@H]2CC[C@H](O)CN(C2)c2nc(OC[C@@]34CCCN3C[C@H](F)C4)nc3c(F)c(ncc23)-c2c(c(Cl)cc3[nH]ncc23)CCCO1 (racemic) [Example 282, (26R,29S)-18-chloro-32-fluoro-4-(((2R,7aS)-2-fluorotetrahydro-1H-pyrrolo[1,2-a]pyrrol-7a(5H)-yl)methoxy)-29-hydroxy-23-oxa-1,3,5,9,14,15,25-heptaazahexacyclo[24.4.1.1~6,10~.0~2,7~.0~11,19~.0~12,16~]dotriaconta-2,4,6(32),7,9,11,13,16,18-nonaen-24-one]",1190,7,133,3,,
"Cc1cc2[nH]ncc2c2c1CCCCC(=O)O[C@]1(C)CCCN(C1)c1nc(OC[C@@]34CCCN3C[C@H](F)C4)nc3c(F)c-2ncc13 [Example 32, (17R)-30-fluoro-24-(((2R,7aS)-2-fluorotetrahydro-1H-pyrrolo[1,2-a]pyrrol-7a(5H)-yl)methoxy)-9,17-dimethyl-16-oxa-5,6,21,23,25,29-hexaazahexacyclo[24.3.1.1~17,21~.0~2,10~.0~3,7~.0~22,27~]hentriaconta-1(30),2,4,7,9,22,24,26,28-nonaen-15-one]",422,5,43,3,,
"Cc1cc2[nH]ncc2c2c1/C=C\COC(=O)O[C@@H]1CCCN(C1)c1nc(OC[C@@]34CCCN3C[C@H](F)C4)nc3c(F)c-2ncc13 (single isomer, unassigned) [Example 123]",650,8,104,4,,
"O=C1OCCCc2c(Cl)cc3[nH]ncc3c2-c2ncc3c(nc(OC[C@@]45CCCN4C[C@H](F)C5)nc3c2F)N2CCC[C@]3(C2)C[C@H](C3)O1 [Example 323, (1R,3S)-11-chloro-33-fluoro-25-(((2R,7aS)-2-fluorotetrahydro-1H-pyrrolo[1,2-a]pyrrol-7a(5H)-yl)methoxy)-4,6-dioxa-14,15,20,24,26,28-hexaazaheptacyclo[26.3.1.1~1,3~.1~19,23~.0~10,18~.0~13,17~.0~22,27~]tetratriaconta-10,12,15,17,19(33),20,22,24,26-nonaen-5-one]",,5,,2,318,30.5
"O[C@@H]1C[C@@H]2CN(C1)c1nc(OC[C@@]34CCCN3C[C@H](F)C4)nc3c(F)c(ncc13)-c1c(c(Cl)cc3[nH]ncc13)CCCn1ncc2n1 (single isomer, unassigned) [Example 300]",,10,,5,281,23.2
"Cc1cc2[nH]ncc2c2c1CCC[C@H](O)CC[C@H]1CCCN(C1)c1nc(OC[C@@]34CCCN3C[C@H](F)C4)nc3c(F)c-2ncc13 [Example 238, (14S,17R)-30-fluoro-24-(((2R,7aS)-2-fluorotetrahydro-1H-pyrrolo[1,2-a]pyrrol-7a(5H)-yl)methoxy)-9-methyl-5,6,21,23,25,29-hexaazahexacyclo[24.3.1.1˜17,21˜.0˜2,10˜.0˜3,7˜.0˜22,27˜]hentriaconta-1(30),2,4,7,9,22,24,26,28-nonaen-14-ol]",5000,45,861,24,,
Fc1c2ncc3c(nc(OC[C@@]45CCCN4C[C@H](F)C5)nc13)N1CCC[C@@H](CCOCCCc3c(Cl)cc4[nH]ncc4c3-2)C1 [Example 139],910,6,114,3,,
O=C1NCCCc2c(Cl)cc3[nH]ncc3c2-c2ncc3c(nc(OC[C@@]45CCCN4C[C@H](F)C5)nc3c2F)N2CCCC[C@H](C2)O1 [Example 288],427,7,102,2,,
"Cc1cc2[nH]ncc2c2c1CCCCC(=O)N[C@H]1CN(C[C@H]3C[C@H]31)c1nc(OC[C@@]34CCCN3C[C@H](F)C4)nc3c(F)c-2ncc13 [Example 171, (26R,27R,29S)-32-fluoro-4-(((2R,7aS)-2-fluorotetrahydro-1H-pyrrolo[1,2-a]pyrrol-7a(5H)-yl)methoxy)-18-methyl-1,3,5,9,14,15,25-heptaazaheptacyclo[24.4.1.1~6,10~.0~2,7~.0~11,19~.0~12,16~.0~27,29~]dotriaconta-2,4,6,8,10(32),11,13,16,18-nonaen-24-one]",1090,6,106,4,,
Fc1c2ncc3c(nc(OC[C@@]45CCCN4C[C@H](F)C5)nc13)N1CC(COCCCCc3c(Cl)cc4[nH]ncc4c3-2)CC2(CC2)C1 (some centres unmarked) [Example 228],487,12,181,8,,
"Fc1c2ncc3c(nc(OC[C@@]45CCCN4C[C@H](F)C5)nc13)N1CCOC[C@H](COCCCCc3c(Cl)cc4[nH]ncc4c3-2)C1 (single isomer, unassigned) [Example 136]",670,7,77,3,,
